According to patent US20030017999A1, “Composition for the prevention and /or treatment of lipid metabolism disorders and allergic forms” (priority 2000, published 2003):

Columns and labels:
[1] = test system: human macrophages from bronchoalveolar lavage fluid; assay: Macrophage stimulation test (phagocytosis and intracellular killing); type: cell-based
Experimental: After filtration, centrifuging and gradient separation on Ficoll, the viability of the cells was evaluated with the trypan blue test. Phagocytosis and intracellular killing were calculated according to the method described by […]. Bacterial, 98:996, 1969).

[2] = test system: Mitomycin-induced toxicity (leukocyte depletion); assay: Leukocyte depletion induced by mitomycin C in mice; type: in vivo; settings: mitomycin C 50 μg/mouse peritoneal for five days, alone or with isovaleryl L-carnitine 30 mg/mouse and/or β-glucan 10 mg/mouse; for No. leukocytes after 5 days: day 5; for No. leukocytes after 10 days: day 10; for No. leukocytes after 12 days: day 12
Experimental: (§1) In these tests a first group of mice received peritoneal injections of 50 μg/mouse of mitomycin C for five consecutive days. In addition to mitomycin, a second group of animals were also injected with isovaleryl L-carnitine alone (30 mg/mouse), a third group with β-glucan alone (10 mg/mouse) and a fourth group with a combination of the two compounds for five consecutive days. On the fifth, tenth and twelfth day following the start of treatment, the number of leukocytes present in the blood and the mortality rates of the animals were evaluated in both treated and control animals.

[3] = test system: Mitomycin-induced toxicity (mortality); assay: Mortality induced by mitomycin C in mice; type: in vivo; settings: for % animals surviving after 5 days / % animals surviving after 10 days / % animals surviving after 12 days (survival rate): mitomycin C 50 μg/mouse peritoneal for five days, alone or with isovaleryl L-carnitine 30 mg/mouse and/or β-glucan 10 mg/mouse; for % animals surviving after 5 days: day 5; for % animals surviving after 10 days: day 10; for % animals surviving after 12 days (survival rate): day 12
Experimental: Results of Tests Regarding the Immunostimulant and Protective Effect exerted against Mitomycin-induced Toxicity by the Combination of Isovaleryl L-carnitine and β-glucan
as §1

SMILES	increase in intracellular killing [1]	increase in phagocyte activity [1]	No. leukocytes after 5 days [2]	No. leukocytes after 10 days [2]	No. leukocytes after 12 days [2]	% animals surviving after 5 days [3]	% animals surviving after 10 days [3]	% animals surviving after 12 days (survival rate) [3]	mortality rate ([3]; mitomycin C alone 50 μg/mouse peritoneal for five days, twelfth day)
CC(C)CC(=O)O[C@H](CC(=O)[O-])C[N+](C)(C)C [Isovaleryl L-carnitine]	15%	10%	5,750 ± 310	4,900 ± 220	3,100 ± 310	50%	30%	15%	
CO[C@@]12[C@H](COC(N)=O)C3=C(C(=O)C(C)=C(N)C3=O)N1C[C@@H]1N[C@@H]12 [Mitomycin C]			5,400 ± 270	3,000 ± 220	1,100 ± 190	50%	20%	0%	100%
